molecular target: recombinant human AMPK complex 1 (containing α1β1γ1) (Homo sapiens, UniProt Q13131+Q9Y478); assay: In vitro AMPK activation assay ([…]); assay type: biochemical; conditions: not given
Description: The recombinant human AMPK complex 1 (containing α1β1γ1) was obtained from baculovirus expression system. Recombinant viruses were generated by cotransfection of AMPK/pBacPak9 clones with Baculogold baculovirus DNA (Pharmingen) in spodoptera frugiperda 21 cells according to the manufacturer's instructions. Each round of virus amplification was performed for 5 days in Grace's medium containing 10% serum. Virus that had been subjected to three rounds of amplification was used for all protein production procedures. To express the AMPK complex, sf21 cells were adapted to serum free medium (SF900 II, Invitrogen) by sequential dilution from serum containing stocks into SF900II medium and maintained in shaker flasks at 90 rpm at 27° C. The recombinant AMPK enzyme complex was produced by triple infection, one recombinant virus for each of the subunits, in sf21 cells under serum free conditions. Cells were infected in log phase, 1×10^6 cells/ml, at a multiplicity of infection of ˜5. Cells were harvested by centrifugation at 10,000×g for 15 minutes after 72 hours of infection with viruses. The insect cell pellet from 2 liters of culture was resuspended in 50 ml lysis buffer (20 mM Tris-HCl, 50 mM NaCl, 50 mM NaF, 30 mM Na PPi, 0.25 M sucrose, 10 mM ZnCl2, 2 mM DTT, 0.4 mg/ml digitonin) and subjected to two cycles of freeze-thaw lysis in a dry-ice ethanol bath. Insoluble material was removed by centrifugation at 10,000×g and the supernatant was fractionated with use of polyethylene glycol (PEG). The protein fraction precipitating between 2.5 and 6% PEG was used for further purification using a Blue-Sepharose step (Zhou et al, J. Clin. Invest. 108, 1167-1174, 2001).
The total in vitro AMPK activation assay volume is 50 μl in a 96-well plate. The reaction mixture contained 100 μM ATP (0.5 μCi ^33P-ATP per reaction), and 50 μM SAMS ([…]) in a buffer (20 mM HEPES, pH 7.0, 5 mM MgCl2, 0.01% Brij35). The reaction was initiated with addition of the enzyme. After 30-minute incubation at 30° C., the reaction was stopped by addition of 80 μl 1% H3PO4. Aliquots (100 μl) were transferred to 96-well MultiScreen plates (MAPHNOB50; Millipore Corp., Bedford, Mass., USA). The plate was washed three times with 1% H3PO4 followed by detection in a Top-count. The counts per minute from the basal activity (the reaction without activator) was subtracted from each well and the data were expressed as % maximum AMP activation followed by EC50 calculation.

Sequence of recombinant human AMPK complex 1 (containing α1β1γ1) (Q13131 whole entry): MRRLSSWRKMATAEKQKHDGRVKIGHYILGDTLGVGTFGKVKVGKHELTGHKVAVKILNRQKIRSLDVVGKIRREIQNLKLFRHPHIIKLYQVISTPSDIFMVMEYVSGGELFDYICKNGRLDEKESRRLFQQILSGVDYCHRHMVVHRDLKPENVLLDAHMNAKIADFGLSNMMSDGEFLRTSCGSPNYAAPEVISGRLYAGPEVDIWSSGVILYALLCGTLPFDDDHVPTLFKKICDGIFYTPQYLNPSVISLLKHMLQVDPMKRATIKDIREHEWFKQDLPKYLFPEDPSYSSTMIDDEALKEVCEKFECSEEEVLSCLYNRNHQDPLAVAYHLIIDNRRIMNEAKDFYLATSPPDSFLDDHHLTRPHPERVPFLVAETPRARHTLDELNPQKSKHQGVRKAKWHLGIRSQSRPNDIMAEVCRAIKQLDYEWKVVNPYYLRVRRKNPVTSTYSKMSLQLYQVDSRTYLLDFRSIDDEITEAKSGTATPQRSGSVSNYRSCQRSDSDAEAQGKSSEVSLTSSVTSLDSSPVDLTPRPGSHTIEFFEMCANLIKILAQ
Sequence of recombinant human AMPK complex 1 (containing α1β1γ1) (Q9Y478 whole entry): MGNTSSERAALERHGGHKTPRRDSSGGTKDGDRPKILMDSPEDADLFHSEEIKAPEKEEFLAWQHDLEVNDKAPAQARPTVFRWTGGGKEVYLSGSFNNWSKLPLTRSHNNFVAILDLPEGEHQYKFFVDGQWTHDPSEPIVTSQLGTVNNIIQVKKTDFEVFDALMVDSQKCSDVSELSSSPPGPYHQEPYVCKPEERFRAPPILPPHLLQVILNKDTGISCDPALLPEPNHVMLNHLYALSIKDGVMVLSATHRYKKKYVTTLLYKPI
Sequence of recombinant human AMPK complex 1 (containing α1β1γ1) (P54619 whole entry partner): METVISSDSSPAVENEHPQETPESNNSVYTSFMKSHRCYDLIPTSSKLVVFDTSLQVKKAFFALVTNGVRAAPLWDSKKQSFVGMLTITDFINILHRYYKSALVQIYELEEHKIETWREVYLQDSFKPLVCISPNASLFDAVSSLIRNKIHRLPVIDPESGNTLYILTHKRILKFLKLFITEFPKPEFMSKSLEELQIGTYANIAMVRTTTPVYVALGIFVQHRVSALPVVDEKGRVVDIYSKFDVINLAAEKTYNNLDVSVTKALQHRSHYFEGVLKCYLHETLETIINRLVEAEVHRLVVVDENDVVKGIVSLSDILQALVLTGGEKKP

Row | SMILES | EC50
1 | O=C(O)CSc1nc2cc(C#Cc3ccccc3)c(Cl)cc2[nH]1 [Example 1, (6-Chloro-5-phenylethynyl-1H-benzoimidazol-2-ylsulfanyl)-acetic acid] | 259 nM

same assay, conditions: recombinant human AMPK complex 1 (α1β1γ1); basal activity subtracted, expressed as % maximum AMP activation

Row | SMILES | Emax
2 | O=C(O)CSc1nc2cc(-c3csc(-c4ccccc4)n3)c(Cl)cc2[nH]1 [Example 72] | > 40%
3 | O=C(O)CSc1nc2cc(-c3ccc(O)cc3)c(Cl)cc2[nH]1 [Example 8, 2-(6-chloro-5-(4-hydroxyphenyl)-1H-benzo[d]imidazol-2-ylthio)acetic acid] | > 40%
4 | O=C(O)CSc1nc2cc(C#Cc3ccc(F)cc3F)c(Cl)cc2[nH]1 [Example 24, [6-chloro-5-(2,4-difluoro-phenyl-ethynyl)-1H-benzoimidazol-2-ylsulfanyl]-acetic acid] | > 40%
5 | O=C(O)CSc1nc2cc(C#Cc3ccc(Br)cc3)c(Cl)cc2[nH]1 [Example 68] | > 40%
6 | C[S+]([O-])c1ccc(-c2cc3nc(SCC(=O)O)[nH]c3cc2Cl)cc1 (stereo not shown) [Example 86] | > 40%
7 | O=C(O)CSc1nc2cc(C#Cc3cccc(F)c3)c(Cl)cc2[nH]1 [Example 23] | > 40%
8 | COc1cccc(C#Cc2cc3nc(SCC(=O)O)[nH]c3cc2Cl)c1 [Example 32, [6-chloro-5-(3-methoxy-phenyl-ethynyl)-1H-benzoimidazol-2-ylsulfanyl]-acetic acid] | > 40%
9 | O=C(O)CSc1nc2cc(-c3ccc(-c4cnccn4)cc3)c(Cl)cc2[nH]1 [Example 73] | > 40%
10 | CS(=O)(=O)Nc1ccc(C#Cc2cc3nc(SCC(=O)O)[nH]c3cc2Cl)cc1 [Example 77] | > 40%
11 | COc1ccc(-c2cc3nc(SCC(=O)O)[nH]c3cc2Cl)cc1 [Example 42, [6-chloro-5-(4-methoxy-phenyl)-1H-benzimidazol-2-ylsulfanyl]-acetic acid] | > 40%
12 | CCc1ccc(C(=O)Cc2cc3nc(SCC(=O)O)[nH]c3cc2Cl)cc1 [Example 74] | > 40%
13 | O=C(O)CSc1nc2cc(-c3ccc(-c4ccccc4)s3)c(Cl)cc2[nH]1 [Example 58] | > 40%
14 | O=C(O)CCc1nc2cc(-c3ccccc3)c(Cl)cc2[nH]1 [Example 50, 3-(6-Chloro-5-phenyl-1H-benzimidazol-2-yl)-propionic acid] | > 40%
15 | O=C(O)CSc1nc2cc(-c3cc(F)cc(F)c3)c(Cl)cc2[nH]1 [Example 5, [6-chloro-5-(3,5-difluoro-phenyl)-1H-benzimidazol-2-ylsulfanyl]-acetic acid] | > 40%
16 | Cc1cccc(C#Cc2cc3nc(SCC(=O)O)[nH]c3cc2Cl)c1 [Example 31, (6-chloro-5-m-tolylethynyl-1H-benzoimidazol-2-ylsulfanyl)-acetic acid] | > 40%
17 | COc1ccc(C#Cc2cc3nc(SCC(=O)O)[nH]c3cc2Cl)cc1 [Example 39, [6-chloro-5-(4-methoxy-phenyl-ethynyl)-1H-benzimidazol-2-ylsulfanyl]-acetic acid] | > 40%
18 | O=C(O)CSc1nc2cc(-c3ccc(OCc4ccccc4)cc3)c(Cl)cc2[nH]1 [Example 44, [5-(4-benzyl-oxy-phenyl)-6-chloro-1H-benzimidazol-2-ylsulfanyl]-acetic acid] | > 40%
19 | COc1ccc(-c2cc3nc(SCC(=O)O)[nH]c3cc2Cl)cn1 [Example 12, 2-(6-chloro-5-(6-methoxypyridin-3-yl)-1H-benzo[d]imidazol-2-ylthio)acetic acid] | > 40%
20 | O=C(O)CSc1nc2cc(C#Cc3cccc(O)c3)c(Cl)cc2[nH]1 [Example 29, [6-chloro-5-(3-hydroxyphenyl-ethynyl)-1H-benzoimidazol-2-ylsulfanyl]-acetic acid] | > 40%

Row | SMILES | Emax
21 | CC(=O)Nc1cccc(C#Cc2cc3nc(SCC(=O)O)[nH]c3cc2Cl)c1 [Example 17, 2-(5-((3-acetamido-phenyl)ethynyl)-6-chloro-1H-benzo[d]-imidazol-2-ylthio)-acetic acid] | > 40%
22 | O=C(O)CSc1nc2cc(-c3ccc(-c4ccn[nH]4)cc3)c(Cl)cc2[nH]1 [Example 16, 2-(5-(4-(1H-pyrazol-5-yl)phenyl)-6-chloro-1H-benzo[d]imidazol-2-ylthio)acetic acid] | > 40%
23 | CC(C)Cc1ccc(-c2cc3nc(SCC(=O)O)[nH]c3cc2Cl)cc1 [Example 43, [6-chloro-5-(4-isobutyl-phenyl)-1H-benzimidazol-2-ylsulfanyl]-acetic acid] | > 40%
24 | O=C(O)CSc1nc2cc(-c3ccc(OCc4ccccc4)c(F)c3)c(Cl)cc2[nH]1 [Example 40, [5-(4-Benzyloxy-3-fluoro-phenyl)-6-chloro-1H-benzimidazol-2-ylsulfanyl]-acetic acid] | > 40%
25 | O=C(O)CSc1nc2cc(-c3ccc(CO)cc3)c(Cl)cc2[nH]1 [Example 9, 2-(6-chloro-5-(4-(hydroxymethyl)phenyl)-1H-benzo[d]-imidazol-2-ylthio)-acetic acid] | > 40%
26 | O=C(O)CSc1nc2cc(C#Cc3ccccn3)c(Cl)cc2[nH]1 [Example 57] | > 40%
27 | O=C(O)CSc1nc2cc(-c3cccc(F)c3)c(Cl)cc2[nH]1 [Example 4, [6-chloro-5-(3-fluoro-phenyl)-1H-benzimidazol-2-ylsulfanyl]-acetic acid] | > 40%
28 | O=C(O)CSc1nc2cc(C#Cc3cc(F)cc(F)c3)c(Cl)cc2[nH]1 [Example 69] | > 40%
29 | O=C(O)CSc1nc2cc(C#CC3CCCC3)c(Cl)cc2[nH]1 [Example 35, (6-chloro-5-cyclo-pentylethynyl-1H-benzo-imidazol-2-yl-sulfanyl)-acetic acid] | > 40%
30 | Nc1ccccc1C#Cc1cc2nc(SCC(=O)O)[nH]c2cc1Cl [Example 10, 2-(5-((2-amino-phenyl)ethynyl)-6-chloro-1H-benzo[d]-imidazol-2-ylthio)-acetic acid] | > 40%
31 | CS(=O)(=O)c1ccc(C#Cc2cc3nc(SCC(=O)O)[nH]c3cc2Cl)cc1 [Example 19, [6-chloro-5-(4-methanesulfonyl-phenyl-ethynyl)-1H-benzo-imidazol-2-yl-sulfanyl]-acetic acid] | > 40%
32 | O=C(O)CSc1nc2cc(-c3ccc(C(F)(F)F)cc3)c(Cl)cc2[nH]1 [Example 81] | > 40%
33 | CC(=O)Nc1ccc(C#Cc2cc3nc(SCC(=O)O)[nH]c3cc2Cl)cc1 [Example 76] | > 40%
34 | N#Cc1ccc(C#Cc2cc3nc(SCC(=O)O)[nH]c3cc2Cl)cc1 [Example 28, [6-chloro-5-(4-cyano-phenyl-elhynyl)-1H-benzoimidazol-2-ylsulfanyl]-acetic acid] | > 40%
35 | O=C(O)CSc1nc2cc(C#Cc3ccc(F)cc3)c(Cl)cc2[nH]1 [Example 22] | > 40%
36 | O=C(O)CSc1nc2cc(C#Cc3cccs3)c(Cl)cc2[nH]1 [Example 38, (6-chloro-5-thiophen-2-yl-ethynyl-1H-benzo-imidazol-2-yl-sulfanyl)-acetic acid] | > 40%
37 | CN(C)C(=O)c1ccc(C#Cc2cc3nc(SCC(=O)O)[nH]c3cc2Cl)cc1 [Example 82] | > 40%
38 | O=C(O)CSc1nc2cc(C#Cc3ccc(C(=O)O)cc3)c(Cl)cc2[nH]1 [Example 75] | > 40%

same assay, conditions: recombinant human AMPK complex 1 (α1β1γ1); read-out: EC50

Row | SMILES | EC50
39 | O=C(O)COc1nc2cc(C#Cc3ccccc3)c(Cl)cc2[nH]1 [Example 48, (6-Chloro-5-phenylethynyl-1H-benzoimidazol-2-yloxy)-acetic acid] | 130 nM
40 | Cn1ccc2cc(-c3cc4nc(SCC(=O)O)[nH]c4cc3Cl)ccc21 [Example 59] | 100 nM

From US8563746B2, “Cyclic benzimidazole derivatives useful as anti-diabetic agents” (Merck Sharp & Dohme Corp, priority 2008, dated 2013)
